Test results reported in article PMC4994520 (European journal of medicinal chemistry, 2012).
Read-outs that look alike come from different tables or passages of the source.

How the values were obtained:
Format in all cases: biochemical
human PDE5 = human PDE5 (Homo sapiens, UniProt O76074); experiment: PDE5 inhibition, IMAP fluorescence polarization phosphodiesterase assay; details: for inhibition at 10 µM: read-out: % PDE5 inhibition at 10 μM; for % PDE5 inhibition at 10 μM: triplicate
PDE11A = PDE11A (Homo sapiens, UniProt Q9HCR9); experiment: PDE11A inhibition, IMAP fluorescence polarization assay; details: for selectivity profile (selectivity index) PDE5 versus PDE11: cGMP as the substrate
PDE10A = PDE10A (Homo sapiens, UniProt Q9Y233); experiment: PDE10A inhibition, IMAP fluorescence polarization assay
PDE2A = PDE2A (Homo sapiens, UniProt O00408); experiment: PDE2A inhibition, IMAP fluorescence polarization assay
PDE3A = PDE3A (Homo sapiens, UniProt Q14432); experiment: PDE3A inhibition, IMAP fluorescence polarization assay
PDE1A = PDE1A (Homo sapiens, UniProt P54750); experiment: PDE1A inhibition, IMAP fluorescence polarization assay
PDE3B = PDE3B (Homo sapiens, UniProt Q13370); experiment: PDE3B inhibition, IMAP fluorescence polarization assay
PDE9A = PDE9A (Homo sapiens, UniProt O76083); experiment: PDE9A inhibition, IMAP fluorescence polarization assay
[1] = read-out: PDE2A inhibition IC50 μM, substrate cGMP
[2] = read-out: PDE3A inhibition IC50 μM, substrate cGMP
[3] = read-out: PDE1A inhibition IC50 μM, substrate cGMP
[4] = read-out: PDE3B inhibition IC50 μM, substrate cGMP

Chain of PDE3A (Q14432 whole entry): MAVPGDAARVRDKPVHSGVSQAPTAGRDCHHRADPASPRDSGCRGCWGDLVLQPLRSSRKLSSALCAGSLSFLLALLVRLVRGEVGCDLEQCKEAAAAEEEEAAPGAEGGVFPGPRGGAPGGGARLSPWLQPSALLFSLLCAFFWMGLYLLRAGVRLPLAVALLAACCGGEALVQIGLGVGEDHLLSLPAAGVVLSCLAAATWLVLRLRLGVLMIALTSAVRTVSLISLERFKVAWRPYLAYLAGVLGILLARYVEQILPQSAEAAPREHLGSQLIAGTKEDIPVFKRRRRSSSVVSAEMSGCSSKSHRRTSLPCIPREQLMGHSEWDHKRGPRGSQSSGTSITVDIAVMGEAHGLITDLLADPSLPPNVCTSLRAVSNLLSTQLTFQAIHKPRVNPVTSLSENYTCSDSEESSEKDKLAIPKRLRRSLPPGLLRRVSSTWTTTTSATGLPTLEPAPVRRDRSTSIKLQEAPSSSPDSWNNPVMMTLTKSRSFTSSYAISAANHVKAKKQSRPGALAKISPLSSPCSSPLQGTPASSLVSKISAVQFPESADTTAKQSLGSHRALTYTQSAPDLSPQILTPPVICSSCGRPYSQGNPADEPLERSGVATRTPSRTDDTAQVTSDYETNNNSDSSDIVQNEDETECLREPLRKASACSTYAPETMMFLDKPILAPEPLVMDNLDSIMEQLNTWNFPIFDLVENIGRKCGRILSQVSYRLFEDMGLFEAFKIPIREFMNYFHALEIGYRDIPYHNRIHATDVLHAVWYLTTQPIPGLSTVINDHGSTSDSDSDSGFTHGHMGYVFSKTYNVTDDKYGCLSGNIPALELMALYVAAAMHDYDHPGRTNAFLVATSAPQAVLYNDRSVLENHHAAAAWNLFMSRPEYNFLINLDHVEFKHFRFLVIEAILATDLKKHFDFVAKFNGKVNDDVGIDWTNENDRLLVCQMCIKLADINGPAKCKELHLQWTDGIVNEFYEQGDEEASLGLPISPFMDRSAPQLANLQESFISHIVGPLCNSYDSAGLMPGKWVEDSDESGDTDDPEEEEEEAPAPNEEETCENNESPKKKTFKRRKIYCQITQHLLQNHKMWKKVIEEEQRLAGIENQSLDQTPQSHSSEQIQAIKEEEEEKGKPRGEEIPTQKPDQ
Chain of PDE10A (Q9Y233 290-1055 limits assumed): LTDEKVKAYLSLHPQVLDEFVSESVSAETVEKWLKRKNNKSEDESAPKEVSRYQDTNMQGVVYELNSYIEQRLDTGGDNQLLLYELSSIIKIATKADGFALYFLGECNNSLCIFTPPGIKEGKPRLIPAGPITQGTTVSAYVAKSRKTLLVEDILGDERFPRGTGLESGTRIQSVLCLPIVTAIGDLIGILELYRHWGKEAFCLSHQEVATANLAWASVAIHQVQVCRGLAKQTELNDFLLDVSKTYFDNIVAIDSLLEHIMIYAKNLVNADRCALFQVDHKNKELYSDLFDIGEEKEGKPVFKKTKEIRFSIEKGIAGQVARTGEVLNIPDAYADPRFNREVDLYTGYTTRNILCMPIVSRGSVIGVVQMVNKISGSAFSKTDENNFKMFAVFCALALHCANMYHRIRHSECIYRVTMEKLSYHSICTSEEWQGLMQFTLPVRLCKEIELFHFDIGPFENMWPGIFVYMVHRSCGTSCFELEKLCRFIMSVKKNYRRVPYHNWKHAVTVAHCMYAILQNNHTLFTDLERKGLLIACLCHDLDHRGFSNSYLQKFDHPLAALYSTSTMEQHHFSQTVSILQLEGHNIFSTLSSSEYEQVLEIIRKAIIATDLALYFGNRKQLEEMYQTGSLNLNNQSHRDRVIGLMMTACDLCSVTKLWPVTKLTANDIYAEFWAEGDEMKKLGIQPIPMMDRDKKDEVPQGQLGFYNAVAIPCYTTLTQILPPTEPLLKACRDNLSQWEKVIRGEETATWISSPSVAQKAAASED
Chain of PDE11A (Q9HCR9 whole entry): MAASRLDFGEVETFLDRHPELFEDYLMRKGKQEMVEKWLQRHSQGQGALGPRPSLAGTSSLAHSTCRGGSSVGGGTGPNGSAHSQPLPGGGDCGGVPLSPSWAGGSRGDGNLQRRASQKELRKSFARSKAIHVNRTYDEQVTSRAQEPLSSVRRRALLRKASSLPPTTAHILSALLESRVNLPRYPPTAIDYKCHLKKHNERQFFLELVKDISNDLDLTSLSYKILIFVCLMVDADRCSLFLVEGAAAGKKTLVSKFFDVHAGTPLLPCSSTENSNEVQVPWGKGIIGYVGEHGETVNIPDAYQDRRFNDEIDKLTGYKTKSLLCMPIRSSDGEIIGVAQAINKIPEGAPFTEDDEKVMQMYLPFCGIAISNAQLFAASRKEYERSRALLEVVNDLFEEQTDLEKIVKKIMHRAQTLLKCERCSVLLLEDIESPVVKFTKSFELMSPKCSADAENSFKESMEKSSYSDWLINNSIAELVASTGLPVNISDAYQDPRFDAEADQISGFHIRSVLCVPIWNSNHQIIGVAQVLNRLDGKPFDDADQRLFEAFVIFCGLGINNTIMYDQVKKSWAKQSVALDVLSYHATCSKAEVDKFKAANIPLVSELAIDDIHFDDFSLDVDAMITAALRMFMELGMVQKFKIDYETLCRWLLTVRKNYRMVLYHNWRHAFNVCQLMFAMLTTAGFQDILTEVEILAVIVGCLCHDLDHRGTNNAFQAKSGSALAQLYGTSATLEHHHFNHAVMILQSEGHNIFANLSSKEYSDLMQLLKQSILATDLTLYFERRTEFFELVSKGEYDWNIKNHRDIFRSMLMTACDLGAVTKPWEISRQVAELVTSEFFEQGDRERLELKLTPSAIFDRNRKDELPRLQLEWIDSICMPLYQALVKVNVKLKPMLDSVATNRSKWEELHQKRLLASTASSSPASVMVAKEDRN
Chain of PDE1A (P54750 whole entry): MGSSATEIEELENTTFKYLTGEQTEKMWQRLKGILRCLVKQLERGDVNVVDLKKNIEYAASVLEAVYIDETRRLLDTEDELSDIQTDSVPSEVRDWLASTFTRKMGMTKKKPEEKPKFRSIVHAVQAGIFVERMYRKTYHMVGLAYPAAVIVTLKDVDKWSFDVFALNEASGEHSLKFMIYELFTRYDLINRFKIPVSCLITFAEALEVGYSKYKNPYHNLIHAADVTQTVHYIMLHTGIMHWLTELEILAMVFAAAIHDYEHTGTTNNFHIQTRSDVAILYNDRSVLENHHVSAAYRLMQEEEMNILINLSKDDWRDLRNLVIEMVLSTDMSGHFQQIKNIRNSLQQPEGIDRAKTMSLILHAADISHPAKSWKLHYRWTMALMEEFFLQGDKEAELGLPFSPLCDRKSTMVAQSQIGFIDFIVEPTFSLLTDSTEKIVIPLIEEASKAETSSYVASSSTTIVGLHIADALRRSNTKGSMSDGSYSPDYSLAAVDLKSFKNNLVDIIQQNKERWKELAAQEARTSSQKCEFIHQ
Chain of PDE3B (Q13370 whole entry): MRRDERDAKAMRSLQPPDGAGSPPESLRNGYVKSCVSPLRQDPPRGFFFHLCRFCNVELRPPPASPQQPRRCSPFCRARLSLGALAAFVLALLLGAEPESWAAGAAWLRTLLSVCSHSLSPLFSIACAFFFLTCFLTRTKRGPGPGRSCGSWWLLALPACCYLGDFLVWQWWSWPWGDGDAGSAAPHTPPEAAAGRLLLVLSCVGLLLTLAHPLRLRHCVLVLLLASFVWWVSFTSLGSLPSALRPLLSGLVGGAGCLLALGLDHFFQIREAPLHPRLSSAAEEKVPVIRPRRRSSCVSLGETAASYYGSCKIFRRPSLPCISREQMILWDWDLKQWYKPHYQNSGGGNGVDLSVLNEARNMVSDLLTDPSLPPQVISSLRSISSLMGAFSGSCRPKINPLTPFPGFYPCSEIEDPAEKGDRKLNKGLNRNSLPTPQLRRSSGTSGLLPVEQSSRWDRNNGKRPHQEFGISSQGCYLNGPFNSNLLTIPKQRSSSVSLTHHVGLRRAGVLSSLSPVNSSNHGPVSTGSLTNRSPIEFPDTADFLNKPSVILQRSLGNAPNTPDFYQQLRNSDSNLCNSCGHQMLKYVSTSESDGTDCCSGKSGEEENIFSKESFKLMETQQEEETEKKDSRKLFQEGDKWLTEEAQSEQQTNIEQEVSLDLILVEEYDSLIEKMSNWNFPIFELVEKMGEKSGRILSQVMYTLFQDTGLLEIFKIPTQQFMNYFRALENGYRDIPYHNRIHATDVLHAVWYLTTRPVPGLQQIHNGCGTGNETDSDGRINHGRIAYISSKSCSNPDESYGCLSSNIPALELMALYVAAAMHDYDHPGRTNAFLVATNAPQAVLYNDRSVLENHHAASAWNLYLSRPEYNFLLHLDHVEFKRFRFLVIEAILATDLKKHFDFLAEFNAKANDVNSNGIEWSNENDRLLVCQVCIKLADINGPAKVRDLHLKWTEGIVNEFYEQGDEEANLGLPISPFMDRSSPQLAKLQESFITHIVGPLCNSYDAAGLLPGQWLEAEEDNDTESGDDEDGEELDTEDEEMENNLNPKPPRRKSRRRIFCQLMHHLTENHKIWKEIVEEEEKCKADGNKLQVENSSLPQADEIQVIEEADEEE
Chain of PDE9A (O76083 whole entry): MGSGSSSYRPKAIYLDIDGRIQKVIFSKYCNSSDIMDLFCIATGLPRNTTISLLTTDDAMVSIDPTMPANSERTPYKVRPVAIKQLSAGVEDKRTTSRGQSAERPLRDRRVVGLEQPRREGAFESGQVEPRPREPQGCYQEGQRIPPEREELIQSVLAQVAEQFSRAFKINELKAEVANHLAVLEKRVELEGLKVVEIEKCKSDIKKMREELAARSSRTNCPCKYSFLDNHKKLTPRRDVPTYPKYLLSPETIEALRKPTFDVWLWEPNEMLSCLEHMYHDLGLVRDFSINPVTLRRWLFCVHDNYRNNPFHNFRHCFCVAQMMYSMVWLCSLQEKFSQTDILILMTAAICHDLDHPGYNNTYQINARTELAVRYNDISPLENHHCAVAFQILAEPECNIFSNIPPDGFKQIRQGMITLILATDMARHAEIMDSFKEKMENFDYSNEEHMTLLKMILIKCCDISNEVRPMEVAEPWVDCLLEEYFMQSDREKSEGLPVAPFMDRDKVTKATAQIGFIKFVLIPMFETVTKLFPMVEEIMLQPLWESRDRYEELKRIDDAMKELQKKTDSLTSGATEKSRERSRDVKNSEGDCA

| SMILES | IC50 (human PDE5) [µM] | inhibition at 10 µM (human PDE5) [%] | also measured |
| --- | --- | --- | --- |
| CCC(C)N1C(=O)[C@@H]2Cc3c([nH]c4ccccc34)[C@@H](c3ccc(Br)cc3)N2C1=O (stereo partly drawn) [Compound 16, (5R,11aS)-5-(4-Bromophenyl)-2-sec-butyl-5,6,11,11a-tetrahydro-1H-imidazo[1′,5′:1,6]pyrido[3,4-b]indole-1,3(2H)-dione] | 0.15 | 92 | – |
| CN1CC(=O)N2[C@H](c3ccc(Br)cc3)c3[nH]c4ccccc4c3C[C@@H]2C1=O [Compound 25, (6R,12aR)-6-(4-Bromophenyl)-2-methyl-2,3,6,7,12,12a-hexahydropyrazino [1′,2′:1,6]pyrido[3,4-b]indole-1,4-dione] | 0.019 | 98 | IC50 (PDE11A; PDE11A inhibition IC50 μM, substrate cAMP): 0.6 µM; IC50 (PDE11A; PDE11A inhibition IC50 μM, substrate cGMP): 0.27 µM; selectivity profile (selectivity index) PDE5 versus PDE11 (PDE11A): 14; IC50 (PDE10A; PDE10A inhibition IC50 μM, substrate cAMP): > 50 µM; IC50 (PDE10A; PDE10A inhibition IC50 μM, substrate cGMP): 41.7 µM; IC50 (PDE2A): > 50 µM; IC50 (PDE2A; [1]): > 50 µM; IC50 (PDE3A): > 50 µM; IC50 (PDE3A; [2]): > 50 µM; IC50 (PDE1A): > 50 µM; IC50 (PDE1A; [3]): > 50 µM; IC50 (PDE3B): > 50 µM; IC50 (PDE3B; [4]): > 50 µM; IC50 (PDE9A): > 50 µM |
| CCCCN1C(=O)[C@H]2Cc3c([nH]c4ccccc34)[C@H](c3ccc(Br)cc3)N2C1=O [Compound 10, (5S,11aR)-5-(4-Bromophenyl)-2-butyl-5,6,11,11a-tetrahydro-1H-imidazo[1′,5′:1,6]pyrido[3,4-b]indole-1,3(2H)-dione] | > 10 | 72.1 | – |
| COC(=O)[C@H]1Cc2c([nH]c3ccccc23)[C@@H](c2ccc(Br)cc2)N1C(=O)CCl [Compound 21, Methyl (1R,3R)-1-(4-bromophenyl)-2-(chloroacetyl)-2,3,4,9-tetrahydro-1H-β-carboline-3-carboxylate] | > 10 | 25 | – |
| CCC(C)N1C(=O)[C@H]2Cc3c([nH]c4ccccc34)[C@@H](c3ccc(Br)cc3)N2C1=O (stereo partly drawn) [Compound 13, (5R,11aR)-5-(4-Bromophenyl)-2-sec-butyl-5,6,11,11a-tetrahydro-1H-imidazo[1′,5′:1,6]pyrido[3,4-b]indole-1,3(2H)-dione] | 0.37 | 83 | – |
| CCCCN1CC(=O)N2[C@H](c3ccc(Br)cc3)c3[nH]c4ccccc4c3C[C@@H]2C1=O [Compound 33] | – | – | selectivity profile (selectivity index) PDE5 versus PDE11 (PDE11A): 67; IC50 (PDE11A; read-out: PDE11A inhibition IC50 μM, substrate cAMP): 1.2 µM; IC50 (PDE11A; read-out: PDE11A inhibition IC50 μM, substrate cGMP): 0.6 µM; IC50 (PDE10A; read-out: PDE10A inhibition IC50 μM, substrate cAMP): > 50 µM; IC50 (PDE10A; read-out: PDE10A inhibition IC50 μM, substrate cGMP): > 50 µM; IC50 (PDE2A; read-out: PDE2A inhibition IC50 μM, substrate cAMP): > 50 µM; IC50 (PDE2A; [1]): > 50 µM; IC50 (PDE3A; read-out: PDE3A inhibition IC50 μM, substrate cAMP): > 50 µM; IC50 (PDE3A; [2]): > 50 µM; IC50 (PDE1A; read-out: PDE1A inhibition IC50 μM, substrate cAMP): > 50 µM; IC50 (PDE1A; [3]): > 50 µM; IC50 (PDE3B; read-out: PDE3B inhibition IC50 μM, substrate cAMP): > 50 µM; IC50 (PDE3B; [4]): > 50 µM; IC50 (PDE9A; read-out: PDE9A inhibition IC50 μM, substrate cGMP): > 50 µM; % PDE5 inhibition at 10 μM (human PDE5): 87%; IC50 (human PDE5; read-out: IC50 μM (PDE5), 8 concentrations 1 nM–10 μM): 0.009 µM; IC50 (human PDE5; read-out: PDE5A inhibition IC50 μM, substrate cAMP (as printed in sub-head)): 0.009 µM |
| COC(=O)[C@@H]1Cc2c([nH]c3ccccc23)[C@@H](c2ccc(Br)cc2)N1 [Compound 4, Methyl (1R,3S)-1-(4-bromophenyl)-2,3,4,9-tetrahydro-1H-β-carboline-3-carboxylate] | 4.2 | 75 | – |
| CC(C)(C)N1C(=O)[C@H]2Cc3c([nH]c4ccccc34)[C@@H](c3ccc(Br)cc3)N2C1=O [Compound 17, (5R,11aR)-5-(4-Bromophenyl)-2-tert-butyl-5,6,11,11a-tetrahydro-1H-imidazo[1′,5′:1,6]pyrido[3,4-b]indole-1,3(2H)-dione] | 0.27 | 91 | – |
| CN1CC(=O)N2[C@@H](c3ccc(Br)cc3)c3[nH]c4ccccc4c3C[C@@H]2C1=O [Compound 26, (6S,12aR)-6-(4-Bromophenyl)-2-methyl-2,3,6,7,12,12a-hexahydropyrazino [1′,2′:1,6]pyrido[3,4-b]indole-1,4-dione] | 6.6 | 94 | – |
| CCCCN1C(=O)[C@H]2Cc3c([nH]c4ccccc34)[C@@H](c3ccc(Br)cc3)N2C1=O [Compound 9, (5R,11aR)-5-(4-Bromophenyl)-2-butyl-5,6,11,11a-tetrahydro-1H-imidazo[1′,5′:1,6]pyrido[3,4-b]indole-1,3(2H)-dione] | 0.23 | 98.7 | – |
| CCCCN1C(=O)[C@@H]2Cc3c([nH]c4ccccc34)[C@@H](c3ccc(Br)cc3)N2C1=O [Compound 12, (5R,11aS)-5-(4-Bromophenyl)-2-butyl-5,6,11,11a-tetrahydro-1H-imidazo[1′,5′:1,6]pyrido[3,4-b]indole-1,3(2H)-dione] | – | 106 | – |
| CC(C)(C)N1C(=O)[C@@H]2Cc3c([nH]c4ccccc34)[C@H](c3ccc(Br)cc3)N2C1=O [Compound 19, (5S,11aS)-5-(4-Bromophenyl)-2-tert-butyl-5-(4-bromophenyl)-5,6,11,11a-tetrahydro-1H-imidazo[1′,5′:1,6]pyrido[3,4-b]indole-1,3(2H)-dione] | – | – | % PDE5 inhibition at 10 μM (human PDE5): 38% |
| COC(=O)[C@H]1Cc2c([nH]c3ccccc23)[C@H](c2ccc(Br)cc2)N1 [Compound 2, Methyl (1S,3R)-1-(4-bromophenyl)-2,3,4,9-tetrahydro-1H-β-carboline-3-carboxylate] | – | 10 | – |
| CCN1C(=O)[C@@H]2Cc3c([nH]c4ccccc34)[C@H](c3ccc(Br)cc3)N2C1=O [Compound 7, (5S,11aS)-5-(4-Bromophenyl)-2-ethyl-5,6,11,11a-tetrahydro-1H-imidazo[1′,5′:1,6]pyrido[3,4-b]indole-1,3(2H)-dione] | – | 79.8 | – |
| CCCCN1C(=O)[C@@H]2Cc3c([nH]c4ccccc34)[C@H](c3ccc(Br)cc3)N2C1=O [Compound 11, (5S,11aS)-5-(4-Bromophenyl)-2-butyl-5,6,11,11a-tetrahydro-1H-imidazo[1′,5′:1,6]pyrido[3,4-b]indole-1,3(2H)-dione] | > 10 | 81.5 | – |
| CCC(C)N1C(=O)[C@@H]2Cc3c([nH]c4ccccc34)[C@H](c3ccc(Br)cc3)N2C1=O (stereo partly drawn) [Compound 15, (5S,11aS)-5-(4-Bromophenyl)-2-sec-butyl-5,6,11,11a-tetrahydro-1H-imidazo[1′,5′:1,6]pyrido[3,4-b]indole-1,3(2H)-dione] | 3.3 | 72 | – |

Now from value to compound, other results behind:

| IC50 (human PDE5) [µM] | inhibition at 10 µM (human PDE5) [%] | SMILES | also measured |
| --- | --- | --- | --- |
| – | 21 | CC(C)(C)N1CC(=O)N2[C@H](c3ccc(Br)cc3)c3[nH]c4ccccc4c3C[C@H]2C1=O [Compound 40, (6R,12aS)-6-(4-Bromophenyl)-2-tert-butyl-2,3,6,7,12,12a-hexahydropyrazino[1′,2′:1,6]pyrido[3,4-b]indole-1,4-dione] | – |
| – | 27 | CC(C)(C)N1CC(=O)N2[C@@H](c3ccc(Br)cc3)c3[nH]c4ccccc4c3C[C@@H]2C1=O [Compound 38, (6S,12aR)-6-(4-Bromophenyl)-2-tert-butyl-2,3,6,7,12,12a-hexahydropyrazino [1′,2′:1,6]pyrido[3,4-b]indole-1,4-dione] | – |
| 1.9 | 87 | CN1CC(=O)N2[C@@H](c3ccc(Br)cc3)c3[nH]c4ccccc4c3C[C@H]2C1=O [Compound 27, (6S,12aS)-6-(4-Bromophenyl)-2-methyl-2,3,6,7,12,12a-hexahydropyrazino [1′,2′:1,6]pyrido[3,4-b]indole-1,4-dione] | – |
| – | 92 | CCCCN1CC(=O)N2[C@H](c3ccc(Br)cc3)c3[nH]c4ccccc4c3C[C@H]2C1=O [Compound 36, (6R,12aS)-2-Butyl-6-(4-bromophenyl)-2,3,6,7,12,12a-hexahydropyrazino [1′,2′:1,6]pyrido[3,4-b]indole-1,4-dione] | – |
| 1.9 | 97.9 | CCN1CC(=O)N2[C@@H](c3ccc(Br)cc3)c3[nH]c4ccccc4c3C[C@@H]2C1=O [Compound 30, (6S,12aR)-2-Ethyl-6-(4-bromophenyl)-2,3,6,7,12,12a-hexahydropyrazino [1′,2′:1,6]pyrido[3,4-b]indole-1,4-dione] | – |
| 6.6 | 81.5 | CCCCN1CC(=O)N2[C@@H](c3ccc(Br)cc3)c3[nH]c4ccccc4c3C[C@@H]2C1=O [Compound 34, (6S,12aR)-2-Butyl-6-(4-bromophenyl)-2,3,6,7,12,12a-hexahydropyrazino [1′,2′:1,6]pyrido[3,4-b]indole-1,4-dione] | – |
| 0.22 | 83 | CCN1CC(=O)N2[C@@H](c3ccc(Br)cc3)c3[nH]c4ccccc4c3C[C@H]2C1=O [Compound 31, (6S,12aS)-2-Ethyl-6-(4-bromophenyl)-2,3,6,7,12,12a-hexahydropyrazino [1′,2′:1,6]pyrido[3,4-b]indole-1,4-dione] | – |
